Here are results for 1 compound from patent publication US8669257B2, “Phenazine derivatives and uses thereof as potassium channel modulators” (The Johns Hopkins University, priority 2007, dated 2014).

Each structure is given as a SMILES string. “Also recorded” adds a separate entry of the source.

Test [1] has as its system human mixed lymphocyte reaction. The test is described as follows: Human mixed lymphocyte reaction (MLR), [3H]-thymidine incorporation. The following applies: FIG. 1B, n=6. The test is classed as cell-based. As to the method:
The human MLR was established by coculturing normal human PBMN responder lymphocytes (0.5×10^6) with an equal number of miomycin C-treated stimulator cells in RPMI1640 complete medium. The cells were incubated with varying doses of clofazimine at 37° C. in a humidified atmosphere of 5% CO2 for 4 days. Then 1 μCi of [^3H]-thymidine was added into culture and incubation was continued for 6 h. The cells were harvested and [^3H]-thymidine incorporated into cells was measured in a liquid scintillation counter.
In general terms: Uptake of a labelled nucleoside into DNA is a usual measure of proliferation.

In another test the test system is NFAT luciferase reporter. Nature of the test: NFAT luciferase reporter assay in Jurkat T-cells. The following applies: Homo sapiens, PMA/ionomycin, FIG. 1C, n=6. Format: cell-based. A general note: In a reporter assay the amount or activity of a reporter protein is the signal.
Test [2] deals with EGFP-NFATc3 nuclear translocation. The test is described as follows: NFAT nuclear translocation in Jurkat T-cells stimulated by ionomycin. Format: cell-based, human. The following applies: 1 μM ionomycin.
The subject of the next test is calcineurin. The test is described as follows: Calcineurin enzymatic activity in vitro. The test is classed as biochemical. To be noted: substrates para-nitrophenylphosphate or immunoprecipitated NFATc2.
For the next test, the target named is T1, rat Kv1.2 (Rattus norvegicus, UniProt P63142).
T1 construct: expressed in transfected cells; host or cells: B82 cells
Nature of the test: Patch-clamp of heterologous rat Kv1.2 expressed in B82 cells. The test is classed as cell-based. On the procedure: Patch pipettes, pulled from glass capillaries (inner diameter 1.5 mm, Kimble products) with a horizontal puller (Sutter instruments, Modell P-97), were fire-polished, and had resistances between 2 and 4 MOhm. Patch-clamp experiments were performed in the tight-seal whole-cell configuration at room temperature (22-24° C.). High-resolution current recordings were acquired by a computer-based patch-clamp amplifier system (EPC-9, HEKA). Immediately following establishment of the whole-cell configuration, every two seconds voltage ramps of 50 ms duration spanning the voltage range of −100 to +100 mV for Jurkat T-cells and −150 to +150 mV for HEK293 were delivered from a holding potential (Vh) of −70 mV for Jurkats and 0 mV for HEK293 cells over a period of 300-600 s. […] Capacitive currents and series resistance were determined and corrected before each voltage ramp using the automatic capacitance compensation of the EPC-9. […] Kv1.3 currents in Jurkat T-cells were measured at +80 mV. Heterologously expressed Kv1.1, Kv1.2, Kv1.3, Kv1.5 and Kv3.1 were assessed at +80 mV except in Figure S7, where currents were additionally measured at the more physiological voltage of 0 mV. CRAC currents in HEK293 cells were assessed at −80 mV. […]
On the technique in general: In patch-clamp work, channel activity is measured electrically.

The target of test [3] is calcium-activated IKCa1 potassium channel (Homo sapiens, UniProt O15554). Nature of the test: Activity of IKCa1 channel (data not shown). Format: cell-based. The following applies: up to 10 μM.
Another test has as its target TRPM4 channel (Homo sapiens, UniProt Q8TD43). Nature of the test: Activity of TRPM4 channel (data not shown). To be noted: up to 10 μM. The test is classed as cell-based.
The next test concerns the target T2, Kv1.3 (Homo sapiens, UniProt P22001).
T2 construct: endogenous in cells; host or cells: Jurkat T-cells
The test is described as follows: Immunofluorescence colocalization in Jurkat T-cells. The test is classed as cell-based. The following applies: plasma membrane of Jurkat T-cells. As to the method: Jurkat T-cells treated with clofazimine were centrifuged onto L-lysine-coated coverslips. Cells were fixed with 4% p-formaldehyde for 15 min. The cells were washed in PBS, permeabilized by −20° C. methanol and blocked with 10% donkey serum in PBS. The fixed cells were then incubated with Kv1.3 primary antibody (sc-17239 at 1:100 dilution) for 1 h. Cells were washed in PBS (3×5 min) and incubated with donkey anti-goat Cy5 antibodies for an additional 1 h. Cells were then washed three times in PBS, mounted, and photographed. Mounting was performed using Vectashield mounting medium (Vector Laboratories) and images were captured using either a Zeiss LSM510 confocal microscope. Merged images were compiled using LSM5 Image Examiner or Adobe Photoshop CS.

Test [4] concerns human foreskin graft in Pfp/Rag2−/− mice with human PBL. Nature of the test: Human T-cell-mediated human skin graft rejection in immunodeficient mice. The test is classed as in vivo, mouse. From the text: Kv1.3 has been implicated in T-cell activation and has served as a molecular target for developing novel immunosuppressive agents. Given that clofazimine is already used in the clinic, albeit for a completely different indication, we wondered whether it is efficacious in animal models of organ transplantation. […] These negative results are not surprising given that Kv1.3 plays distinct roles in humans and rodents, as it has been shown that Kv1.3 is dispensable in mice due to the up-regulation of other chloride channels. […] To overcome this problem, we turned to a model of reconstituted human T-cell-mediated human skin rejection in immunodeficient mice. We thus transplanted human foreskin into Pfb-Rag2−/− mice that lack T, B and NK cells. Upon healing of the skin graft for about 7 days, a total of 100 million human peripheral blood lymphocytes from an unrelated donor were adoptively transferred into the same animals. The animals were treated orally with either DMSO (control) or clofazimine at 50 mg/kg/day for a total of 10 days (FIG. 5A). For the control group, the transplanted foreskin was rejected with a median survival time of 11 days (FIG. 5B).
The experimental procedure is similar to that described previously. Clofazimine suspension in olive oil was administered p.o. at 50 mg/kg/day in a total volume of 0.2 ml per administration.

For another test, the system named is murine skin transplant. Nature of the test: Mouse skin transplantation with adoptive transfer of murine cells (parallel experiment). Format: in vivo. The following applies: murine skin and total murine T-cells. From the text:
FIG. 5. […] (A) Representative skin grafts at different days post-transplantation. Human foreskin was transplanted onto Pfp/Rag2−/− mice. 1.0×10^8 human peripheral blood lymphocytes (PBL) were adoptively transferred into each animal at Day 7 post-transplantation. Administration of clofazimine or carrier control (olive oil) was also initiated at Day 7. * Days after skin transplantation/cell transfer. (B) Effect of clofazimine on the mean survival time of transplanted human (n=5) and mouse (n=4) skin grafts. The mouse skin transplantation was performed using Balb/c mice as skin donors, B6 Rag1−/− mice as recipients and PBL from B6 for adoptive transfer.

T1 sequence (P63142 whole entry): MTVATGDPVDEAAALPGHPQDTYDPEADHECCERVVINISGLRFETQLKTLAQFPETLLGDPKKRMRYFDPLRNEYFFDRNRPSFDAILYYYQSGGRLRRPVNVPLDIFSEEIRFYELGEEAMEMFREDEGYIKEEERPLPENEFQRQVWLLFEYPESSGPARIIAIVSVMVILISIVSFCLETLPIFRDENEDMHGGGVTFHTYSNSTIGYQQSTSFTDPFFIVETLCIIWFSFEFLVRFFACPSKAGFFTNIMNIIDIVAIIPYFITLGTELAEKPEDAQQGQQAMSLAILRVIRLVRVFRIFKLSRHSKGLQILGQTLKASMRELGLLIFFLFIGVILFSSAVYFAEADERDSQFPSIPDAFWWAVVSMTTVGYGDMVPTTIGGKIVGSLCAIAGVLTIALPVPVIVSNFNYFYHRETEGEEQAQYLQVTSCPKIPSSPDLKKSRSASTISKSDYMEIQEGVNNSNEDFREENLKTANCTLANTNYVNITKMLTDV
T2 sequence (P22001 whole entry): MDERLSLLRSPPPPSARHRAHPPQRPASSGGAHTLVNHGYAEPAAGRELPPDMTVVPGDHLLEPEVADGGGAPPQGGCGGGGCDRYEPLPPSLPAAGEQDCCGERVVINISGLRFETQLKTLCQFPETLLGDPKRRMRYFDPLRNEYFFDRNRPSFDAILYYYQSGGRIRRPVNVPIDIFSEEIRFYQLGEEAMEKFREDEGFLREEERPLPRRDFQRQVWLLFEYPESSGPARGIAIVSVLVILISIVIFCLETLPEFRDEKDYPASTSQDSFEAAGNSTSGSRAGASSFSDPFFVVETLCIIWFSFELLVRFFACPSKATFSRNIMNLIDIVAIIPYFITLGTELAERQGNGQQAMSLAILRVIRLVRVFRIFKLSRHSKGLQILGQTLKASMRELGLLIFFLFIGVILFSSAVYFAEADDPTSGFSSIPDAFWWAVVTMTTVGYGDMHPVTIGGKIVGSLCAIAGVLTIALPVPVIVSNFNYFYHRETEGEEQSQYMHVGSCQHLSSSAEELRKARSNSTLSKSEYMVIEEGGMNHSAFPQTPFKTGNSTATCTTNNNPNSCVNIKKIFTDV
TRPM4 channel, sequence (Q8TD43 whole entry): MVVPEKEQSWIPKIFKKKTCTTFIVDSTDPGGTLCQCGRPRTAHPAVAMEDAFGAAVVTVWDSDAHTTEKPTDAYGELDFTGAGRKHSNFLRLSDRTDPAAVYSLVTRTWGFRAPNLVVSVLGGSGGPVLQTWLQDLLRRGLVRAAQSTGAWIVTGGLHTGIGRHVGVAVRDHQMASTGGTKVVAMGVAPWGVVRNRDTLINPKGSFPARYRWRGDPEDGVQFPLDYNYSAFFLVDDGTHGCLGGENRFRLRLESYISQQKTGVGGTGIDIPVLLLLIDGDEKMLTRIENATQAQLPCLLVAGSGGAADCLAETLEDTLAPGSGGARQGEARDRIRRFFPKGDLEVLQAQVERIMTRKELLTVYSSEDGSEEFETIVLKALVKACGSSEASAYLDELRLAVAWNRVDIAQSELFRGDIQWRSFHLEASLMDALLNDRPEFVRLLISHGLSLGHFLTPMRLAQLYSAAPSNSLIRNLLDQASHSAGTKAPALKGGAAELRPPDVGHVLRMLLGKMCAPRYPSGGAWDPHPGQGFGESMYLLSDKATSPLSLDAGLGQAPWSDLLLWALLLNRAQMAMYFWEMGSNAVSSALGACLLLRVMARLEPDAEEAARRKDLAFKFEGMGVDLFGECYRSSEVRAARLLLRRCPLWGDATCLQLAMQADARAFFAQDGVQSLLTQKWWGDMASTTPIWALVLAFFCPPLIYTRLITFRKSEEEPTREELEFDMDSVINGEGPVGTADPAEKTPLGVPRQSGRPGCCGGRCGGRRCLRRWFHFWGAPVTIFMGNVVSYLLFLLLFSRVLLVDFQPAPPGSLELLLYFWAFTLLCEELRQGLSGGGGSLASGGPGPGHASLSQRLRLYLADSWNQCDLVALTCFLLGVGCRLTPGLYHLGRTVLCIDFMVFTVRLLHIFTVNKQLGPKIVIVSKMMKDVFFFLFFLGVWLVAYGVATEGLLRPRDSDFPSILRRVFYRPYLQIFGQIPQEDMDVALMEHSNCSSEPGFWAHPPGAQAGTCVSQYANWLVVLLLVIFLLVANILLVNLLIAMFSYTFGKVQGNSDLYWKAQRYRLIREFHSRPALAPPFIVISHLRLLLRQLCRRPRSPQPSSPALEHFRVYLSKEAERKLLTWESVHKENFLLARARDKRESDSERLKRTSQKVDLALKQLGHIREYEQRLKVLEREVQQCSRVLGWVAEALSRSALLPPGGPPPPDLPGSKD
calcium-activated IKCa1 potassium channel, sequence (O15554 whole entry): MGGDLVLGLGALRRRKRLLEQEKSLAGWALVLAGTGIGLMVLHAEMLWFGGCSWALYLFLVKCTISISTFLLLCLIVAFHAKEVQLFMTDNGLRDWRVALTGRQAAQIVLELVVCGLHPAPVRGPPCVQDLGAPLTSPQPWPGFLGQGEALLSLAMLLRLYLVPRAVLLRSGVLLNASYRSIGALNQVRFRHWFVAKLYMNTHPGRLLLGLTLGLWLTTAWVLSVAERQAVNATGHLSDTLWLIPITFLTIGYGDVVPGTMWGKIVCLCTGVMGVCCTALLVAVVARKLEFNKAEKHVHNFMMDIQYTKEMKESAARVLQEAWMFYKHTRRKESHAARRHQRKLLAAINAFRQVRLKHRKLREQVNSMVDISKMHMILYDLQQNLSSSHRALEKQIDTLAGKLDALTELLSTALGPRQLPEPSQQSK

Broadly, the IC50 is the midpoint of a concentration-inhibition curve. Turning to `CC(C)/N=c1\cc2n(-c3ccc(Cl)cc3)c3ccccc3nc-2cc1Nc1ccc(Cl)cc1` [clofazimine, Clofazimine], the IC50 is 900 ± 170 nM in test [1], 113 ± 30 nM with NFAT luciferase reporter and greater than 10000 nM on rat Kv1.2 (inferred from block at 10 μM). Further, the results for the “effect on NFAT nuclear translocation” value in [2] and in test [2] (listed as Clofazimine) were “blocked the ionomycin-induced nuclear translocation” and “inhibits EGFP-NFATc3 nuclear translocation”, respectively. Besides, in the test on calcineurin, the “effect on enzymatic activity of calcineurin in vitro” value is listed as “no effect on the enzymatic activity; also recorded: does not inhibit the protein phosphatase activity”. The “block of current, rat Kv1.2” value on rat Kv1.2 (10 μM) is on record as “less than 50%”. In addition, in test [3], the “effect on IKCa1 channel activity” value is on record as “remained unaffected”. The “effect on TRPM4 channel activity” value on TRPM4 channel is recorded as “remained unaffected”. Moreover, the “subcellular localization relative to Kv1.3” value is “same subcellular localization pattern” at Kv1.3 and “colocalizes with Kv1.3” on Kv1.3 (listed as Clofazimine). The “mean survival time of transplanted human skin” value in test [4] (50 mg/kg/day orally for 10 days, n=5) is 35 days. The “effect on human T-cell-mediated skin graft rejection” value in test [4] (immunodeficient mice) is reported as “inhibits human T-cell-mediated skin graft rejection”. The “effect on survival of murine skin transplant” value in the test with murine skin transplant is recorded as “no effect on the survival”.
